Measured values taken from patent US20030148963A1 (priority 2000, published 2003).
Read-outs that look alike come from different tables or passages of the source. Marks after values point to notes of the source that are not given here.

Legend:
[1] = tested on: granulocyte mediated inflammatory response; assay: Olive oil induced inflammation (foot-pad swelling); format: in vivo; settings: non-infected mice, n=6, 24 h after injection; no difference to controls
Description: Olive oil induces in vivo a strong granulocyte mediated but T cell independent inflammatory response. Inflammation was induced by injection of 30 μl olive oil (Apoteksbolaget AB, Göteborg, Sweden) intradermally in hind foot-pad. […] Foot-pad swelling was registered 24 h after injection using an Oditest spring caliper. The intensity of the olive oil induced inflammation was expressed (foot-pad thickness^24 h−foot-pad thickness^0 h)×10^−3 cm.

IL-6 [2] = format: cell-based, NMRI mice; settings: 24 h supernatant
[3] = tested on: peripheral blood leukocytes; assay: Hematological analyses during S. aureus infection; format: in vivo, NMRI mice
Description: Hematological Analyses Mice were bled from the tail into heparinized tubes on days −3, −1, 3, and 6-7 after bacterial inoculation. The leukocytes were counted in a hemacytometer (Toa Medical Electronics, Kobe, Japan). Fifty microliters of the heparinized blood was analysed in a FACScan cytometer (Becton Dickinson, San Jose, Calif.) to determine the percentages of lymphocytes, granulocytes, and monocytes, respectively. The absolute numbers of different leukocyte subsets were then calculated from the total leukocyte counts.

peripheral leukocytes = assay: Hematological analyses in CII immunized mice; format: in vivo, B10.QxDBA/1 female mice
Description: Mice were bled from the tail into heparinized tubes at different time-points. The leukocytes were counted in a hemacytometer (Toa Medical Electronics, Kobe, Japan). Fifty microliters of the heparinized blood was analyzed in a FACScan cytometer (Becton Dickinson, San Jose, Calif.) to determine the percentages of lymphocytes, granulocytes, and monocytes. The absolute numbers of different leukocyte subsets were then calculated from the total leukocyte counts.

spleen mononuclear cells = format: cell-based; settings: spleen cells of mice given 12.5 mg/kg 4 days a week for 4 weeks
IL-6 [4] = format: cell-based; settings: spleen cells of mice given 12.5 mg/kg 4 days a week for 4 weeks; mean ± SEM, 4 mice
RANTES = RANTES release by IC-21 macrophage cell line; format: cell-based, murine; settings: data not shown
Description: Levels of TNF, IL-1b, RANTES, and macrophage inflammatory protein (MIP)-1α were determined using sandwich ELISA from R&D Systems (Minneapolis, Minn.).
These cells display many typical features of the macrophage phenotype and are therefore a suitable model for studying cytoline and chemokine release during inflammation (16). The cells were maintained in continous culture using RPMI-1640 supplemented with 10% FCS, L-glutamine, and gentamycin. When the cells had grown to about 70% confluency, they were seeded into a 24-well-plate (Nunc) at a concentration of 1×10^5 per well and incubated at 37° C. in 5% CO2 for 24 h. […] After 24 h of incubation, the cells were washed once with PBS, and reincubated with medium containing different concentrations (1, 10, 100, 1000 ng/ml) of LPS (Difco) and IFN-γ (10, 50, 100 u/nml). The interferon-γ was purified from the supernatants from Chinese hanater ovary (CHO) cells transfected with the murine IFN-γ gene (hybridoma kindly provided by Dr. Morris, Department of Biological Sciences, University of Warwick, Coventry, UK). After 2 and 24 h of incubation the supernatants were collected and stored at −20° C. until analysis.

IFN-γ = assay: Serum IFN-γ in CII immunized mice (ELISA); format: in vivo, B10.QxDBA/1 female mice; settings: serum at end of experiment, mean ± SEM
Description: For quantification of serfu CII antibodies, 96-well plates (Nunc, Roskilde, Denmark) were coated overnight at 4° C. with 10 μg/ml of native CII. Standards and samples were diluted in 0.5% BSA-PBS. Biotinylated F(ab/)2 fragments of goat anti-mouse IgG (Jackson ImmunoResearch Laboratories, West Grove, Pa.) was used as secondary antibody. Development was performed using horseradish peroxidase 0.5 μg/ml and 2.5 mg of the enzyme substrate 2,2-azino-bis-(3-ethylbenzothiazoline sulfonic acid) (Sigma) per mal in citrate buffer (pH 4.2), containing 0.0075% H2O2. The absorbance was measured at 405 nm in a SPECTRAmax spectrophotometer (Molecular Devices, Calif.). IFN-γ levels in sera were quantified with an ELISA system previously described (13). Ninety-six well plates (Nunc) were coated with 2 μg/ml of rat anti-mouse IFN-γ mab (Pharmingen, San Diego, Calif.). Sera, recombinant IFN-γ (Genzyme, Cambridge, Mass.), biotinylated antibodies were all diluted in 0.05 M Tris pH 7.4+0.015 M NaCl. A biotinylated anti mouse IFN-γ antibody (2 μg/ml) (Pharmigen) was used as secondary antibody. After incubation with extravidin alkaline phosphatase 0.5 ?g/ml and alkaline phosphatase substrate 1 mg/ml (Sigma) the absorbance was measured at 405 nm. Interleukin 6 (IL-6) levels in serum and supernatants were measured by a bioassay using cell line B13.29, subclone B9, which is dependent on IL-6 for growth. […]

[5] = etoposide 1 μM, mean ± SEM, four mice
[6] = Etoposide-pretreated, Day-2 (prior to experiment, baseline)
[7] = Etoposide-treated (from day 40), Day 61
[8] = Etoposide-treated (from day 40), Day-2 (baseline)

COc1cc([C@@H]2c3cc4c(cc3[C@@H](O[C@@H]3O[C@@H]5CO[C@@H](C)O[C@H]5[C@H](O)[C@H]3O)[C@H]3COC(=O)[C@H]23)OCO4)cc(OC)c1O [Etoposide]
Foot-pad swelling, olive oil induced inflammation [1]: 128±131 ×10^−3 cm | IL-6, ConA stimulated (IL-6 [2]; [5]): 825 ± 455 pg/mL | IL-6, TSST-1 stimulated (IL-6 [2]; [5]): 45 ± 16b pg/ml | IL-6, ConA stimulated (IL-6 [2]; etoposide 10 μM): <10^b pg/ml | IL-6, TSST-1 stimulated (IL-6 [2]; etoposide 10 μM): <10^b pg/ml | IL-6, ConA stimulated (IL-6 [2]; etoposide 100 μM): <10^b pg/ml | IL-6, TSST-1 stimulated (IL-6 [2]; etoposide 100 μM): <10^b pg/ml | Numbers of lymphocytes ([3]; day prior to bacterial inoculation): 5.6±0.4 ×10^6/ml | Numbers of granulocytes ([3]; day −1): 1.3±0.2 ×10^6/ml | Levels of circulating monocytes ([3]; etoposide from three days prior to S. aureus inoculation, FIG. 4): significantly decreased | Numbers of lymphocytes ([3]; seven days after infection): 0.8±0.2 ×10^6/ml | Numbers of granulocytes ([3]; seven days after the inoculation): 1.6±0.4 ×10^6/ml | Granulocytes (peripheral leukocytes; Etoposide-pretreated, Day 61): 698 ± 341^b × 10^4/ml | Lymphocytes (peripheral leukocytes; Etoposide-pretreated, Day 61): 7.1 ± 3.4 × 10^6/ml | Monocytes (peripheral leukocytes; Etoposide-pretreated, Day 61): 67 ± 20 × 10^4/ml | Granulocytes (peripheral leukocytes; [6]): 71 ± 13 × 10^4/ml | Lymphocytes (peripheral leukocytes; [6]): 4.7 ± 0.3 × 10^6/ml | Monocytes (peripheral leukocytes; [6]): 18 ± 4 × 10^4/ml | Granulocytes (peripheral leukocytes; [7]): 991 ± 326^b × 10^4/ml | Lymphocytes (peripheral leukocytes; [7]): 14.3 ± 3.3^b × 10^6/ml | Monocytes (peripheral leukocytes; [7]): 92 ± 24^a × 10^4/ml | Granulocytes (peripheral leukocytes; [8]): 87 ± 20 × 10^4/ml | Lymphocytes (peripheral leukocytes; [8]): 5.9 ± 0.8 × 10^6/ml | Monocytes (peripheral leukocytes; [8]): 19 ± 3 × 10^4/ml | Counts per minute (CPM), TSST-1 (spleen mononuclear cells; first value of merged cell): 1117 ± 26 CPM | Counts per minute (CPM), Con A (spleen mononuclear cells; mean ± SEM, 4 mice): 2183 ± 214^a) CPM | Counts per minute (CPM), 0 (unstimulated) (spleen mononuclear cells; second value of merged cell): 156 ± 9 CPM | IL-6, Con A (IL-6 [4]): 74 ± 15^a) pg/ml | IL-6, TSST-1 (IL-6 [4]): 10 ± 3 pg/mL | RANTES release (RANTES): upregulated | IFN-g (IFN-γ; Etoposide-pretreated): 1848 ± 248^c u/ml | IFN-g (IFN-γ; Etoposide-treated (from day 40)): 2094 ± 199^b u/ml
